First: O=C(N[C@H](Cc1ccc(F)cc1)[C@@H](O)c1ccc(C(F)(F)F)cc1)c1cccc2ccccc12 (racemic) [Example 212, N-((1RS,2SR)-1-((4-fluorophenyl)methyl)-2-hydroxy-2-(4-(trifluoromethyl)phenyl)ethyl)-1-naphthalenecarboxamide]
Second: O=C(N[C@H](Cc1ccc(F)cc1)[C@@H](O)c1ccc(C(F)(F)F)cc1)c1ccc(F)c2ccccc12 (racemic) [Example 213, 4-fluoro-N-((1RS,2SR)-1-((4-fluorophenyl)methyl)-2-hydroxy-2-(4-(trifluoromethyl)phenyl)ethyl)-1-naphthalenecarboxamide]
The melting point of the first is lower: 207 to 208 °C for the first, 235 to 236 °C for the second.

First: O=C(N[C@H](Cc1ccc(F)cc1)[C@@H](O)c1ccc(C(F)(F)F)cc1)C1CCCCC1 (racemic) [Example 214, N-((1RS,2SR)-1-((4-fluorophenyl)methyl)-2-hydroxy-2-(4-(trifluoromethyl)phenyl)ethyl)cyclohexanecarboxamide]
Second: O=C(CCCc1ccccc1)N[C@H](Cc1ccc(F)cc1)[C@@H](O)c1ccc(C(F)(F)F)cc1 (racemic) [Example 215, N-((1RS,2SR)-1-((4-fluorophenyl)methyl)-2-hydroxy-2-(4-(trifluoromethyl)phenyl)ethyl)-4-phenylbutyramide]
The melting point of the first is higher: 220 to 221 °C for the first, 155 to 156 °C for the second.

First: CC(C)(C)OC(=O)N[C@H](Cc1cccc(OC(F)(F)C(F)F)c1)[C@@H](O)c1ccnc(F)c1 (racemic) [Example 219, 1,1-dimethylethyl(1RS,2SR)-2-(2-fluoropyridin-4-yl)-2-hydroxy-1-((3-(1,1,2,2-tetrafluoroethoxy)phenyl)methyl)ethylcarbamate]
Second: CC(C)(C)OC(=O)N[C@H](Cc1cccc(OC(F)(F)C(F)F)c1)[C@@H](O)c1ccc(F)nc1 (racemic) [Example 223, 1,1-dimethylethyl(1RS,2SR)-2-(6-fluoropyridin-3-yl)-2-hydroxy-1-((3-(1,1,2,2-tetrafluoroethoxy)phenyl)methyl)ethylcarbamate]
The melting point of the first is higher: 143 to 144 °C for the first, 128 to 129 °C for the second.

First: CC(C)(C)OC(=O)N[C@H](Cc1cccc(OC(F)(F)C(F)F)c1)[C@@H](O)c1cccc(F)n1 (racemic) [Example 221, 1,1-dimethylethyl(1RS,2RS)-2-(6-fluoropyridin-2-yl)-2-hydroxy-1-((3-(1,1,2,2-tetrafluoroethoxy)phenyl)methyl)ethylcarbamate]
Second: CC(C)(C)OC(=O)N[C@H](Cc1cccc(OC(F)(F)C(F)F)n1)[C@@H](O)c1ccc(F)cc1 (racemic) [Example 238, tert-butyl (1RS,2SR)-2-(4-fluorophenyl)-2-hydroxy-1-{[6-(1,1,2,2-tetrafluoroethoxy)pyridin-2-yl]methyl}ethylcarbamate]
The melting point of the first is higher: 140 to 141 °C for the first, 109 to 110 °C for the second.

First: O=C(N[C@H](Cc1cccc(OC(F)(F)C(F)F)c1)[C@@H](O)c1ccc(F)nc1)c1ccc(F)c2ccccc12 (racemic) [Example 224, N-((1RS,2SR)-2-(6-fluoropyridin-3-yl)-2-hydroxy-1-((3-(1,1,2,2-tetrafluoroethoxy)phenyl)methyl)ethyl)-4-fluoro-1-naphthalenecarboxamide]
Second: Cc1cc(C[C@@H](NC(=O)c2ccc(F)c3ccccc23)[C@@H](O)c2ccc(F)cc2)cc(OC(F)(F)C(F)F)c1 (racemic) [Example 230, N-((1RS,2SR)-2-(4-fluorophenyl)-2-hydroxy-1-((5-methyl-3-(1,1,2,2-tetrafluoroethoxy)phenyl)methyl)ethyl)-4-fluoro-1-naphthalenecarboxamide]
The melting point of the first is lower: 148 to 149 °C for the first, 189 to 190 °C for the second.

First: Cc1ccc(C[C@@H](NC(=O)c2cccc3c2C=CCCC3)[C@@H](O)c2ccc(F)cc2)cc1OC(F)(F)C(F)F (racemic) [Example 234, N-((1RS,2SR)-2-(4-fluorophenyl)-2-hydroxy-1-((4-methyl-3-((1,1,2,2-tetrafluoroethyl)oxy)phenyl)methyl)ethyl)-6,7-dihydro-5H-benzo[a]cycloheptene-1-carboxamide]
Second: O=C(N[C@H](Cc1cccc(OC(F)(F)C(F)F)n1)[C@@H](O)c1ccc(F)cc1)c1cccc2c1C=CCCC2 (racemic) [Example 239, N-((1RS,2SR)-2-(4-fluorophenyl)-2-hydroxy-1-{[6-(1,1,2,2-tetrafluoroethoxy)pyridin-2-yl]methyl}ethyl)-6,7-dihydro-5H-benzo[a][7]annulene-1-carboxamide]
The melting point of the first is higher: 168 to 169 °C for the first, 134 to 135 °C for the second.

Compared with `O=C(N[C@H](Cc1cccc(OC(F)(F)C(F)F)c1)[C@@H](O)c1cccc(F)c1)c1cccc2c1C=CCCC2` (racemic) [Example 235, N-((1RS,2SR)-2-(3-fluorophenyl)-2-hydroxy-1-[3-(1,1,2,2-tetrafluoroethoxy)benzyl]ethyl)-6,7-dihydro-5H-benzo[a][7]annulene-1-carboxamide], `O=C(N[C@H](Cc1cccc(OC(F)(F)C(F)F)c1)[C@@H](O)c1cccc(Cl)c1)c1cccc2c1C=CCCC2` (racemic) [Example 237, N-{(1RS,2SR)-2-(3-chlorophenyl)-2-hydroxy-1-[3-(1,1,2,2-tetrafluoroethoxy)benzyl]ethyl}-6,7-dihydro-5H-benzo[a][7]annulene-1-carboxamide] is higher in melting point: 150 to 155 °C for the first, 160 to 161 °C for the second.

Compared with `O=C(N[C@H](Cc1cccc(OC(F)(F)C(F)F)c1)[C@@H](O)c1ccc(OCc2ccccc2)cc1)c1cccc2c1C=CCCC2` (racemic) [Example 236, N-{(1RS,2SR)-2-[4-(benzyloxy)phenyl]-2-hydroxy-1-[3-(1,1,2,2-tetrafluoroethoxy)benzyl]ethyl}-6,7-dihydro-5H-benzo[a][7]annulene-1-carboxamide], `O=C(N[C@H](Cc1cccc(OC(F)(F)C(F)F)c1)[C@@H](O)c1cccc(OCc2ccccc2)c1)c1cccc2c1C=CCCC2` (racemic) [Example 240, N-{(1RS,2SR)-2-[3-(benzyloxy)phenyl]-2-hydroxy-1-[3-(1,1,2,2-tetrafluoroethoxy)benzyl]ethyl}-6,7-dihydro-5H-benzo[a][7]annulene-1-carboxamide] is higher in melting point: 115 to 116 °C for the first, 128 to 129 °C for the second.

First: O=C(N[C@H](Cc1cccc(OC(F)(F)C(F)F)c1)[C@@H](O)c1ccc(O)cc1)c1cccc2c1C=CCCC2 (racemic) [Example 241, N-{(1RS,2SR)-2-hydroxy-2-(4-hydroxyphenyl)-1-[3-(1,1,2,2-tetrafluoroethoxy)benzyl]ethyl}-6,7-dihydro-5H-benzo[a][7]annulene-1-carboxamide]
Second: COc1ccc([C@H](O)[C@@H](Cc2cccc(OC(F)(F)C(F)F)c2)NC(=O)c2cccc3c2C=CCCC3)cc1 (racemic) [Example 242, N-{(1RS,2SR)-2-hydroxy-2-(4-methoxyphenyl)-1-[3-(1,1,2,2-tetrafluoroethoxy)benzyl]ethyl}-6,7-dihydro-5H-benzo[a][7]annulene-1-carboxamide]
The melting point of the first is higher: 167 to 168 °C for the first, 151 to 152 °C for the second.

First: CC(C)Oc1ccc([C@H](O)[C@@H](Cc2cccc(OC(F)(F)C(F)F)c2)NC(=O)c2cccc3c2C=CCCC3)cc1 (racemic) [Example 243, N-{(1RS,2SR)-2-hydroxy-2-(4-isopropoxyphenyl)-1-[3-(1,1,2,2-tetrafluoroethoxy)benzyl]ethyl}-6,7-dihydro-5H-benzo[a][7]annulene-1-carboxamide]
Second: CCCCOc1ccc([C@H](O)[C@@H](Cc2cccc(OC(F)(F)C(F)F)c2)NC(=O)c2cccc3c2C=CCCC3)cc1 (racemic) [Example 244, N-{(1RS,2SR)-2-(4-butoxyphenyl)-2-hydroxy-1-[3-(1,1,2,2-tetrafluoroethoxy)benzyl]ethyl}-6,7-dihydro-5H-benzo[a][7]annulene-1-carboxamide]
The melting point of the first is higher: 134 to 135 °C for the first, 126 to 127 °C for the second.

First: O=C(N[C@H](Cc1cccc(OC(F)(F)C(F)F)c1)[C@@H](O)c1ccc(OCc2ccc(F)cc2)cc1)c1cccc2c1C=CCCC2 (racemic) [Example 245, N-{(1RS,2SR)-2-{4-[(4-fluorobenzyl)oxy]phenyl}-2-hydroxy-1-[3-(1,1,2,2-tetrafluoroethoxy)benzyl]ethyl}-6,7-dihydro-5H-benzo[a][7]annulene-1-carboxamide]
Second: O=C(O)c1ccc(COc2ccc([C@@H](O)[C@H](Cc3cccc(OC(F)(F)C(F)F)c3)NC(=O)c3cccc4c3C=CCCC4)cc2)cc1 (racemic) [Example 250, 4-[(4-{(1RS,2SR)-2-[(6,7-dihydro-5H-benzo[a][7]annulen-1-ylcarbonyl)amino]-1-hydroxy-3-[3-(1,1,2,2-tetrafluoroethoxy)phenyl]propyl}phenoxy)methyl]benzoic acid]
The melting point of the first is lower: 144 to 145 °C for the first, 190 to 191 °C for the second.

Compared with `O=C(N[C@H](Cc1cccc(OC(F)(F)C(F)F)c1)[C@@H](O)c1ccc(OCC2CCCCC2)cc1)c1cccc2c1C=CCCC2` (racemic) [Example 246, N-{(1RS,2SR)-2-[4-(cyclohexylmethoxy)phenyl]-2-hydroxy-1-[3-(1,1,2,2-tetrafluoroethoxy)benzyl]ethyl}-6,7-dihydro-5H-benzo[a][7]annulene-1-carboxamide], `CC(=O)OCCOc1ccc([C@@H](O)[C@H](Cc2cccc(OC(F)(F)C(F)F)c2)NC(=O)c2cccc3c2C=CCCC3)cc1` (racemic) [Example 249, (4-{(1RS,2SR)-2-[(6,7-dihydro-5H-benzo[a][7]annulen-1-ylcarbonyl)amino]-1-hydroxy-3-[3-(1,1,2,2-tetrafluoroethoxy)phenyl]propyl}phenoxy)ethyl acetate] is lower in melting point: 141 to 142 °C for the first, 125 to 126 °C for the second.

Compared with `O=C(N[C@H](Cc1cccc(OC(F)(F)C(F)F)c1)[C@@H](O)c1ccc(OCCCOc2ccccc2)cc1)c1cccc2c1C=CCCC2` (racemic) [Example 247, N-{(1RS,2SR)-2-hydroxy-2-[4-(3-phenoxypropoxy)phenyl]-1-[3-(1,1,2,2-tetrafluoroethoxy)benzyl]ethyl}-6,7-dihydro-5H-benzo[a][7]annulene-1-carboxamide], `COC(=O)c1ccc(COc2ccc([C@@H](O)[C@H](Cc3cccc(OC(F)(F)C(F)F)c3)NC(=O)c3cccc4c3C=CCCC4)cc2)cc1` (racemic) [Example 248, methyl 4-[(4-{(1RS,2SR)-2-[(6,7-dihydro-5H-benzo[a][7]annulen-1-ylcarbonyl)amino]-1-hydroxy-3-[3-(1,1,2,2-tetrafluoroethoxy)phenyl]propyl}phenoxy)methyl]benzoate] is higher in melting point: 142 to 143 °C for the first, 169 to 170 °C for the second.

Source: patent US6982348B2, “Aminoethanol derivatives” (Takeda Pharmaceutical Company Limited, priority 2001, dated 2006)
